Here are results for 78 compounds from ChEMBL document CHEMBL5441142, “Probing the Merck KGaA Open Global health library for novel starting points for anti-schistosomal drug discovery” (2024).

Molecules are shown by their SMILES. Calls of active or inactive are those of the source. No rule for the calls is given here.

The subject of the test is Schistosoma mansoni. Briefly: In vitro activity screen on S. mansoni schistosomula at 10 uM. Compound-induced effects were assessed by quantifying larva motility and phenotype using Roboworm. The following applies: Puerto Rican. The test is classed as functional, organism-based. Also on record: test concentration 10 uM, temperature 37 degree C, time incubation 72 h.

With `CCOC(=O)Nc1ccc(C(=O)N2CCCC(c3ccc(OC)c(OCC)c3)=N2)cc1`, the In vitro activity result is “inactive”.
As for `O=C(O)CC1CCN(c2nc(NCc3ccc4c(c3)OCO4)c3c4c(sc3n2)CCCC4)CC1`, the entry is “inactive”; as for `CCOc1cc(CCNC(=O)C[C@H]2S[C@@H](c3ccc(C#Cc4ccccc4)cc3)N(c3cccc(C(N)=O)c3)C2=O)ccc1O`, “inactive”.
The result for `CCCc1nn(C)c2c(=O)[nH]c(-c3cc(S(=O)(=O)Oc4cccnc4C)ccc3OCC)nc12` reads “inactive”; that for `Cc1c(C(=O)N=C(N)N)cc(-n2cccc2)c(C)c1C`, “inactive”.
The result for `COc1ccc(CNc2nc(-c3ccc(CC(=O)O)cc3)nc3sc4c(c23)CCCC4)cc1Cl` reads “inactive”.
With `O=C(O)c1ccc(-c2nc(NCc3ccc4c(c3)OCO4)c3c4c(oc3n2)CCCC4)cc1`, the In vitro activity entry was “inactive”.
As for `COc1ccc(OCC(=O)O)cc1-c1cn2cc(C(=O)NCCc3c(OC)cccc3OC)sc2n1`, the entry is “inactive”; as for `COc1ccc(OCc2nn[nH]n2)cc1-c1cn2cc(C(=O)NCCc3c(OC)cccc3OC)sc2n1`, “inactive”.
With `O=C(O)c1ccc(-c2nc(NCc3ccc4c(c3)OCO4)c3c(n2)sc2ccccc23)cc1`, the In vitro activity result is “inactive”.
As for `Cc1cc(C2CCC2)c(S(C)(=O)=O)cc1C(=O)N=C(N)N`, the entry is “inactive”.
On to `CN(C)c1nc2c(s1)CCc1[nH]c(=O)c(C#N)cc1-2`, for which the In vitro activity entry was “inactive”.
As for `CC1=C(C(=O)N2CCN(c3cccc(C(F)(F)F)c3)CC2)C2(CCN(C(C)C)CC2)OC1=O`, the entry is “inactive”; as for `CCN1CCC2(CC1)OC(=O)C(C)=C2C(=O)N1C[C@@H]2C[C@H]1CN2c1nccc(C(F)(F)F)n1`, “inactive”; as for `CC(c1cccc(-c2nnn[nH]2)c1)N(Cc1ccccc1)S(=O)(=O)c1ccc(Cl)cc1` (stereo not drawn), “inactive”.
As for `CCN1CCC2(CC1C)OC(=O)C(C)=C2C(=O)N1CCc2ccc(C(F)(F)F)cc2C1` (stereo not drawn), the entry is “inactive”; as for `COCc1cc(-c2nc(-c3ccc(CN(C)CCC(=O)O)c(F)c3)no2)ccc1-c1ccccc1C`, “inactive”.
As for `C[C@H]1CCCCN1c1ccc(-c2nc(-c3cccc(CN(C)CC(=O)O)c3)no2)cc1C(F)(F)F`, the In vitro activity result was “inactive”.
In the case of `COc1cc(OC)c(CCNC(=O)c2cn3cc(-c4cc(OCC(=O)O)ccc4OC)nc3s2)c(OC)c1`, the In vitro activity entry was “inactive”.
As for `COCc1cc(-c2nc(-c3cc(F)cc(CN(C)CC(=O)O)c3)no2)ccc1-c1ccccc1F`, the entry is “inactive”; as for `O=C(O)c1cn(Cc2ccc(-c3ccccc3)cc2)c2ccccc2c1=O`, “inactive”.
The result for `CC1(C)Oc2ccc(C#N)cc2[C@H](n2ccccc2=O)[C@H]1O` reads “inactive”; that for `O=C(O)[C@H]1CC[C@H](c2nc(NCc3ccc4c(c3)OCO4)c3c(n2)sc2ccccc23)CC1`, “inactive”.
The result for `COCc1cc(-c2nc(-c3cccc(CN(C)CC(=O)O)c3)no2)ccc1-c1ccccc1C` reads “inactive”; that for `Cn1c2ccccc2c2c(NCc3ccc4c(c3)OCO4)nc(-c3ccc(C(=O)O)cc3)nc21`, “inactive”; that for `O=C(Nc1ccc(CNc2ncnc3ccccc23)cc1)c1ccc(Cl)c(F)c1`, “inactive”.
`Cc1cc2c(cc1C(=O)N=C(N)N)S(=O)(=O)C(C)(C)/C2=N\O`: the In vitro activity entry is “inactive”.
As for `C1=C(c2ccccc2)CCN(CCCCc2c[nH]c3ccccc23)C1`, the entry is “inactive”; as for `CS(=O)(=O)c1cccc(-c2ccc(Cn3cc(C(=O)O)c(=O)c4cccc(F)c43)cn2)c1`, “inactive”; as for `COC(=O)c1cc(C(=O)N=C(N)N)c(C)cc1C`, “inactive”.
The result for `c1cnc(N2CCN(Cc3cncc(-c4ccsc4)c3)CC2)nc1` reads “inactive”; that for `CCc1cc(C)c(C(=O)N=C(N)N)cc1S(C)(=O)=O`, “inactive”.
On to `COc1ccc(C(=O)N2CCC(C)(C)c3cc(C4=NNC(=O)SC4C)ccc32)cc1OC` (stereo not drawn), for which the In vitro activity entry was “inactive”.
`COc1cc(SCCO)ccc1-c1nc2ccncc2[nH]1`: the In vitro activity entry is “inactive”.
As for `COc1ccc(OCC(N)=O)cc1-c1cn2cc(C(=O)NCCc3c(OC)cccc3OC)sc2n1`, the In vitro activity entry is “inactive”.
The result for `CN(CCCCc1ccc(F)cc1)CCC(=O)c1ccc2[nH]c(=O)oc2c1` reads “inactive”; that for `COc1ccccc1CCN1CCC2(CC1)OC(=O)C(C)=C2C(=O)N1CCc2ccc(C(F)(F)F)cc2C1`, “inactive”.
With `O=C(O)Cc1ccc(-c2nc(NCc3ccc4c(c3)OCO4)c3c(n2)sc2ccccc23)cc1`, the In vitro activity result was “inactive”.
As for `CCCCc1nc2ccn(Cc3ccccc3C(=O)OCC)c(=O)c2n1Cc1ccc(-c2ccccc2-c2nn[nH]n2)cc1`, the entry is “inactive”; as for `COc1ccc(OC)c(-c2cn3cc(C(=O)NCCc4cc(OC)c5c(c4OC)OCO5)sc3n2)c1`, “inactive”; as for `COc1ccc(OCC(=O)O)cc1-c1cn2cc(C(=O)NCCc3c(OC)cc(Cl)cc3OC)sc2n1`, “inactive”.
The result for `COCc1cc(-c2nc(-c3ccc(CN(C)CC(=O)O)c(F)c3)no2)ccc1-c1ccccc1F` reads “inactive”.
The result for `O=C(O)c1ccc(-c2nc(NCc3cccnc3)c3c(n2)sc2ccccc23)cc1` reads “inactive”; that for `CCCN1CCC2(CC1)OC(=O)C(C)=C2C(=O)N1CCc2ncc(C(F)(F)F)cc2C1`, “inactive”; that for `COCc1cc(-c2nc(-c3cc(F)cc(CN(C)CC(=O)O)c3)no2)ccc1-c1ccccc1C`, “inactive”.
On to `CC1=C(C(=O)N2CCc3ncc(C(F)(F)F)cc3C2)C2(CCN(C3CCc4ccccc43)CC2)OC1=O` (stereo not drawn), for which the In vitro activity result is “inactive”.
As for `O=C(O)c1ccc(CCN2C(=O)CCN2CCC(O)Cc2cccc(Br)c2)cc1` (stereo not drawn), the entry is “inactive”; as for `CCOc1cc(C2=NN(C(=O)c3ccc(NC(=O)c4ccc(OC)cc4)cc3)CCC2)ccc1OC`, “inactive”; as for `COc1cc(C(=O)Nc2cn(Cc3ccc(Cl)c(Cl)c3)nn2)ccc1-n1cnc(C)c1`, “inactive”.
For the compound `Cc1csc(N2CCN(C(C)c3ccc4c(c3)OCO4)CC2)n1` (stereo not drawn), the In vitro activity result was “inactive”.
As for `C=CCSc1ccc(-c2nc3ccncc3[nH]2)c(OC)c1`, the entry is “inactive”; as for `CCC(C)[S+]([O-])c1ccc(-c2nc3ccncc3[nH]2)c(OC)c1` (stereo not drawn), “inactive”.
As for `O=C(O)CN1C(=O)[C@@]2(NC(=O)N(Cc3cc(Cl)ccc3F)C2=O)c2cc(Cl)ccc21`, the entry is “inactive”; as for `COc1ccc(N2C(=O)c3ccccc3NC23CN(Cc2cccc(C)c2)C3)cc1`, “inactive”; as for `O=C(O)CCC(=O)OCC1(c2ccc(Cl)cc2)OCC(c2ccccc2)(c2ccccc2)CO1`, “inactive”.
As for `CCCc1nn(C)c2c(=O)[nH]c(-c3cc(S(=O)(=O)Oc4ccccn4)ccc3OCC)nc12`, the entry is “inactive”; as for `Cc1cc(-n2cccc2)c(S(C)(=O)=O)cc1C(=O)N=C(N)N`, “inactive”; as for `CC/N=C(\c1ccc(OC)c(OC)c1)N1CCCc2cc(C3=NNC(=O)SC3C)ccc21` (stereo not drawn), “inactive”.
In the case of `CCCCCCN(Cc1ccc(C#Cc2ccc(CCCC)cc2)cc1)c1ccc(O)c(C(=O)O)c1`, the In vitro activity entry is “inactive”.
On to `CCC(C)Oc1ccc(-c2nc(-c3ccc([C@@H](C)NCC(=O)O)cc3)no2)cc1COC` (stereo partly drawn), for which the In vitro activity result was “inactive”.
The result for `CCc1cc(C(=O)NCc2ccc3c(c2)OCO3)c(NC(=O)c2ccc(C(=O)O)cc2)s1` reads “inactive”; that for `CC1=C(C(=O)N2CCc3ccc(C(F)(F)F)cc3C2)C2(CCN(C)CC2)OC1=O`, “inactive”; that for `CNC(=O)c1cc(Oc2ccc(NC(=O)Nc3cc(C(F)(F)F)ccc3-n3cncn3)cc2)ccn1`, “inactive”.
With `COc1ccc(CNc2nc(-c3ccc(C(=O)O)nc3)nc3sc4c(c23)CCCC4)cc1Cl`, the In vitro activity entry was “inactive”.
The result for `COc1cc(S(C)(=O)=O)ccc1-c1nc2ccncc2[nH]1` reads “inactive”; that for `CNC(=O)c1cc(Oc2ccc(NC(=O)Nc3cc(C(F)(F)F)ccc3-n3ccnc3)cc2)ccn1`, “inactive”.
The result for `CC1=C(C(=O)N2CCc3ccc(C(F)(F)F)cc3C2)C2(CCN(C3CCOC(C)C3)CC2)OC1=O` (stereo not drawn) reads “inactive”.
In the case of `O=C(Nc1ccc(Oc2ccncc2)cc1)Nc1cc(C(F)(F)F)ccc1-n1cncn1`, the In vitro activity entry was “inactive”.
As for `CCN1CCC2(CC1)OC(=O)C(C)=C2C(=O)N1C[C@@H]2C[C@H]1CN2c1cc(C(F)(F)F)ccn1`, the entry is “inactive”; as for `O=C(O)c1ccc(-c2nc(NCc3ccc4c(c3)OCO4)c3cc(Cl)sc3n2)cc1`, “inactive”; as for `COCc1cc(-c2nc(-c3ccc(CN(C)CC(=O)O)c(F)c3)no2)ccc1-c1cccc(F)c1C`, “inactive”.
The result for `Cc1cc(C(=O)C(C)SN2C(=O)c3ccccc3C2=O)ccc1O` (stereo not drawn) reads “inactive”; that for `COc1ccc(CCNC(=O)c2cn3cc(-c4cc(OCCCO)ccc4OC)nc3s2)c(OCCCO)c1`, “inactive”; that for `COCc1cc(-c2nc(-c3cc(F)cc(CN(C)CC(=O)O)c3)no2)ccc1-c1cccc(F)c1C`, “inactive”.
As for `CCC(C)c1cc(C)c(C(=O)N=C(N)N)cc1S(C)(=O)=O` (stereo not drawn), the entry is “inactive”; as for `COc1cc(OC)c(CCNC(=O)c2ccc3nc(-c4cc(OC)ccc4OC)cn3c2)c(OC)c1`, “inactive”; as for `CC1=C(C(=O)N2CCc3ccc(C(F)(F)F)cc3C2)C2(CCN(C3CCCCC3)CC2)OC1=O`, “inactive”.
Take `CCCc1nn(C)c2c(=O)[nH]c(-c3cc(S(=O)(=O)Oc4ccncc4)ccc3OCC)nc12`: the In vitro activity entry was “inactive”.
